Reference: patent US6855843B2, “Inhibitors of α4 mediated cell adhesion” (Tanabe Seiyaku Co., Ltd., priority 1998, dated 2005)

Key:
[1] = biological target: T1, α4β7 (adhesion of RPMI cells to CS-1) (Homo sapiens, UniProt P13612+P26010); assay: RPMI-CS-1 cell adhesion assay; type: cell-based; conditions: adhesion of RPMI B-cell line (expresses α4β7) to CS-1 peptide coated microwells; read-out: RPMI-CS-1 IC50 value range
T1 construct: endogenous in cells
T1 sequence (P13612 34-1032): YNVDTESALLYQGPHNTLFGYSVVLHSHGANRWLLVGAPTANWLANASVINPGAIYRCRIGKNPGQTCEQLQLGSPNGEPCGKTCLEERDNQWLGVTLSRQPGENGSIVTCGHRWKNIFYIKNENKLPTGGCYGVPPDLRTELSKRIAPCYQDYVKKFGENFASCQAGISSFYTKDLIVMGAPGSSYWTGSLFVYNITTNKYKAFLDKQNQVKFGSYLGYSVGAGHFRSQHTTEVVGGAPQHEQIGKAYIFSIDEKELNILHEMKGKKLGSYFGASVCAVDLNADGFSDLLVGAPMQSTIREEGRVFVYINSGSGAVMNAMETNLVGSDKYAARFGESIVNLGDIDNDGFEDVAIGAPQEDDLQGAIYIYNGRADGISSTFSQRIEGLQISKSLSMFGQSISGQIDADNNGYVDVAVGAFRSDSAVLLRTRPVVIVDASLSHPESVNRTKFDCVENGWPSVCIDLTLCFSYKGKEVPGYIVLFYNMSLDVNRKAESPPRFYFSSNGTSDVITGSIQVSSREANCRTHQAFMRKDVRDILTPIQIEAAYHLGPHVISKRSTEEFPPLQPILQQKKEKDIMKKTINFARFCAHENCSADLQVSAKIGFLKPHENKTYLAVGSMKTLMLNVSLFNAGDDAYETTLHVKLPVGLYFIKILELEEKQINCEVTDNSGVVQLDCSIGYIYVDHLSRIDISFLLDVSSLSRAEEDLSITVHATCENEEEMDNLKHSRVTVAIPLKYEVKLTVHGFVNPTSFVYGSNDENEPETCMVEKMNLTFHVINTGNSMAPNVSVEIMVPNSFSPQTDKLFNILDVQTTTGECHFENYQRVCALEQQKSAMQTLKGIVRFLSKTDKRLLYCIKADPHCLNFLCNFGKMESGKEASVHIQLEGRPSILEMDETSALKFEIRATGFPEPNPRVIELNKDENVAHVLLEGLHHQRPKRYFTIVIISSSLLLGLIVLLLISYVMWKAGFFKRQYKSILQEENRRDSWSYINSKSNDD
T1 sequence (P26010 20-798): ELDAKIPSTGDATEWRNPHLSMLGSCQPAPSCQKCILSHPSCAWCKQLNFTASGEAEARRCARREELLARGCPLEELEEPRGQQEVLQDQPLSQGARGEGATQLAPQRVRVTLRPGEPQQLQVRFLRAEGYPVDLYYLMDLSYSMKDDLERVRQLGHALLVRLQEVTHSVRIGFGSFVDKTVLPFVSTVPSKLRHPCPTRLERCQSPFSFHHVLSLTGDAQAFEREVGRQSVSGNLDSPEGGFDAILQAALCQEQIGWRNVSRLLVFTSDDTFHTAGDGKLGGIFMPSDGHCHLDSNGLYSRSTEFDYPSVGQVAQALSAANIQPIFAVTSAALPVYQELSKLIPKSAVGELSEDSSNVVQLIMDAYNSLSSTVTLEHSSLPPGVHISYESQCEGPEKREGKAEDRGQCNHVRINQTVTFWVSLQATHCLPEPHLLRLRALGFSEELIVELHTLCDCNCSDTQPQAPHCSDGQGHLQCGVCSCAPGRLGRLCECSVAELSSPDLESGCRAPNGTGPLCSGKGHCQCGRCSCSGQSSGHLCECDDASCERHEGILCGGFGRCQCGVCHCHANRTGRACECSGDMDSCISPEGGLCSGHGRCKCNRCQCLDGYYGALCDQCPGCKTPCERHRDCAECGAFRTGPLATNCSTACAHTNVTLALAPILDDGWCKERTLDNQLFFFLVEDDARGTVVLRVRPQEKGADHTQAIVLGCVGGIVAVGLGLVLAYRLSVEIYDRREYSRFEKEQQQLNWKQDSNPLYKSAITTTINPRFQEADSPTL

SMILES | melting point | IC50 [1]
COc1cccc(OC)c1-c1ccc(C[C@H](NC(=O)c2c(Cl)cccc2Cl)C(=O)O)cc1NS(C)(=O)=O [Example 298] | 118 to 120 °C | < 300 nM
COc1ccc2c(c1-c1ccc(C[C@H](NC(=O)c3c(Cl)cccc3Cl)C(=O)O)cc1)OCCO2 [Example 241, N-(2,6-Dichlorobenzoyl)-4-(2,3-ethylenedioxy-6-methoxyphenyl)-L-phenylalanine] | 218 °C | < 300 nM
COc1cc(C(=O)NCc2ccccc2)cc(OC)c1-c1ccc(C[C@H](NC(=O)c2c(Cl)cccc2Cl)C(=O)O)cc1 [Example 167] | 153 to 154 °C | < 300 nM
COc1cc(NC(=O)Nc2ccccc2C)cc(OC)c1-c1ccc(C[C@H](NC(=O)c2c(Cl)cccc2Cl)C(=O)O)cc1 [Example 161, N-(2,6-Dichlorobenzoyl)-4-[4-[3-(2-methylphenyl)ureido]-2,6-dimethoxyphenyl]-L-phenylalanine] | 194 to 195 °C | < 300 nM
COc1ccccc1-c1ccc(C[C@H](NC(=O)c2ccc(Br)cc2Cl)C(=O)O)cc1 [Example 212] | 62 to 63 °C | 1000 to 5000 nM
COc1cc(NS(C)(=O)=O)cc(OC)c1-c1ccc(C[C@H](NC(=O)c2c(Cl)cccc2Cl)C(=O)O)cc1 [Example 163, N-(2,6-Dichlorobenzoyl)-4-[2,6-dimethoxy-4-[(methylsulfonyl)amino]phenyl]-L-phenylalanine] | 154 to 155 °C | < 300 nM
COc1ccccc1-c1ccc(C[C@H](NC(=O)C(C)c2c(Cl)cccc2Cl)C(=O)O)cc1 (stereo partly drawn) [Example 213, N-[2-(2,6-Dichlorophenyl)propionyl]-4-(2-methoxyphenyl)-L-phenylalanine] | 109 to 110 °C | 1000 to 5000 nM
COc1ccccc1-c1ccc(C[C@H](NC(=O)c2c(Cl)cccc2Cl)C(=O)O)cc1Cl [Example 336, N-(2,6-Dichlorobenzoyl)-3-chloro-4-(2-methoxyphenyl)-L-phenylalanine] | 131 °C | < 300 nM
COc1cccc(OC)c1-c1ccc(C[C@H](NC(=O)c2c(Cl)cc(F)cc2Cl)C(=O)O)cc1 [Example 320, N-(2,6-Dichloro-4-fluorobenzoyl)-4-(2,6-dimethoxyphenyl)-L-phenylalanine] | 206 to 207 °C | < 300 nM
COC(=O)Nc1cc(OC)c(-c2ccc(C[C@H](NC(=O)c3c(Cl)cccc3Cl)C(=O)O)cc2)c(OC)c1 [Example 158, N-(2,6-Dichlorobenzoyl)-4-(4-methoxycarbonylamino-2,6-dimethoxyphenyl)-L-phenylalanine] | 235 to 236 °C | < 300 nM
O=C(N[C@@H](Cc1ccc(-c2c(C(F)(F)F)cccc2C(F)(F)F)cc1)C(=O)O)c1c(Cl)cccc1Cl [Example 146] | 259 to 260 °C | 300 to 1000 nM
CNC(=O)Nc1cc(Cl)c(C(=O)N[C@@H](Cc2ccc(-c3c(OC)cccc3OC)cc2)C(=O)O)c(Cl)c1 [Example 203] | 110 to 112 °C | < 300 nM
COc1cc(C(=O)NC(C)C)cc(OC)c1-c1ccc(C[C@H](NC(=O)c2c(Cl)cccc2Cl)C(=O)O)cc1 [Example 168] | 261 to 262 °C | < 300 nM
COc1cc(C(=O)NCCN2CCOCC2)cc(OC)c1-c1ccc(C[C@H](NC(=O)c2c(Cl)cccc2Cl)C(=O)O)cc1 [Example 171] | 268 to 269 °C | < 300 nM
CCC(=O)c1cc(C[C@H](NC(=O)c2c(Cl)cccc2Cl)C(=O)O)ccc1-c1ccccc1OC [Example 337] | 118 to 119 °C | < 300 nM
C=CCN(C(=O)OC(C)(C)C)c1cc(OC)c(-c2ccc(C[C@H](NC(=O)c3c(Cl)cccc3Cl)C(=O)O)cc2)c(OC)c1 [Example 155, N-(2,6-Dichlorobenzoyl)-4-[4-(N-allyl-N-tert-butoxycarbonylamino)-2,6-dimethoxyphenyl]-L-phenylalanine] | 138 to 139 °C | < 300 nM
CC(=O)c1ccc(-c2ccc(C[C@H](NC(=O)c3c(Cl)cccc3Cl)C(=O)O)cc2)s1 [Example 215, N-(2,6-Dichlorobenzoyl)-4-(5-acetyl-2-thienyl)-L-phenylalanine] | 194 to 195 °C | 300 to 1000 nM
COc1ccccc1-c1ccc(C[C@@H](NC(=O)c2c(Cl)cccc2Cl)C(=O)O)cc1 [Example 5, N-(2,6-Dichlorobenzoyl)-4-(2-methoxyphenyl)-D-phenylalanine] | 195 °C | 1000 to 5000 nM
COc1ccc(OC)c(-c2ccc(C[C@H](NC(=O)c3c(Cl)cccc3Cl)C(=O)O)cc2C(C)O)c1OC (some centres unmarked) [Example 340] | 121 to 123 °C | < 300 nM
CC(O)c1cc(C[C@H](NC(=O)c2c(Cl)cccc2Cl)C(=O)O)ccc1-c1ccccc1 (stereo partly drawn) [Example 74, N-(2,6-Dichlorobenzoyl)-3-(1-hydroxyethyl)-4-phenyl-L-phenylalanine] | 115 to 117 °C | 300 to 1000 nM
COc1ccc(NC(C)=O)c(OC)c1-c1ccc(C[C@H](NC(=O)c2c(Cl)cccc2Cl)C(=O)O)cc1 [Example 325, N-(2,6-Dichlorobenzoyl)-4-[2,6-dimethoxy-3-(acetylamino)phenyl]-L-phenylalanine] | 244 to 245 °C | < 300 nM
COc1cccc(OC)c1-c1ccc(C[C@H](NC(=O)c2c(Cl)cc(NS(=O)(=O)c3cccs3)cc2Cl)C(=O)O)cc1 [Example 193, N-[2,6-Dichloro-4-[(2-thienylsulfonyl)amino]benzoyl]-4-(2,6-dimethoxyphenyl)-L-phenylalanine] | 141 to 142 °C | < 300 nM
Cc1cccc(C)c1-c1ccc(C[C@H](NC(=O)c2c(Cl)cccc2Cl)C(=O)O)cc1 [Example 145] | 200 to 201 °C | 1000 to 5000 nM
CNC(=O)Nc1ccc(OC)c(-c2ccc(C[C@H](NC(=O)c3c(Cl)cccc3Cl)C(=O)O)cc2)c1OC [Example 324, N-(2,6-Dichlorobenzoyl)-4-[2,6-dimethoxy-3-(methylureido)phenyl]-L-phenylalanine] | 236 to 237 °C | < 300 nM
CCOC(=O)[C@H](Cc1ccc(-c2c(OC)cc(CN3CCCCC3)cc2OC)cc1)NC(=O)c1c(F)cccc1F [Example 354] | 150 °C | < 300 nM
COCOc1ccc(OC)c(-c2ccc(C[C@H](NC(=O)c3c(Cl)cccc3Cl)C(=O)O)cc2)c1OC [Example 174, N-(2,6-Dichlorobenzoyl)-4-(2,6-dimethoxy-3-methoxymethoxyphenyl)-L-phenylalanine] | 156 to 157 °C | < 300 nM
COc1ccccc1-c1ccc(C[C@H](NC(=O)c2c(Cl)cccc2Cl)C(=O)O)cc1OC [Example 75, N-(2,6-Dichlorobenzoyl)-3-methoxy-4-(2-methoxyphenyl)-L-phenylalanine] | 100 to 102 °C | < 300 nM
COc1cccc(OC)c1-c1ccc(C[C@H](NC(=O)c2c(Cl)cc(-c3cscn3)cc2Cl)C(=O)O)cc1 [Example 307, N-[4-(1,3-Thiazol-4-yl)-2,6-dichlorobenzoyl]-4-(2,6-dimethoxyphenyl)-L-phenylalanine] | 186.5 °C | < 300 nM
